Data published in PubChem BioAssay (NCI).
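Grown in 96-well plates, cells were treated for 48 hours with each compound at five concentrations. Insufficient inhibition: endpoint recorded as highest concentration tested. At the TGI there is no net growth.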

Assays:
Experiment in all cases: DTP human tumour cell line panel, 48 h
[1] = system: SN12C renal
[2] = system: SK-MEL-28 melanoma
[3] = system: HOP-18 NSCLC
[4] = system: UO-31 renal
[5] = system: HOP-92 NSCLC
[6] = system: RXF 393 renal
[7] = system: SF-295 CNS
[8] = system: SW-620 colon
[9] = system: HOP-62 NSCLC
[10] = system: SK-OV-3 ovarian
[11] = system: SF-268 CNS
[12] = system: NCI-H460 lung
[13] = system: A549 NSCLC
[14] = system: M19-MEL melanoma
[15] = system: DMS 114 small cell lung
[16] = system: LXFL 529 NSCLC
[17] = system: K-562 leukemia
[18] = system: SNB-19 CNS
[19] = system: MOLT-4 leukemia
[20] = system: OVCAR-3 ovarian
[21] = system: CCRF-CEM leukemia
[22] = system: RXF-631 renal
[23] = system: CAKI-1 renal
[24] = system: SNB-78 CNS
[25] = system: HL-60(TB) leukemia
[26] = system: ACHN renal
[27] = system: SK-MEL-2 melanoma
[28] = system: M14 melanoma
[29] = system: TK-10 renal
[30] = system: SR leukemia
[31] = system: HCT-15 colon
[32] = system: IGROV1 ovarian
[33] = system: HCT-116 colon
[34] = system: NCI-H23 lung
[35] = system: HCC-2998 colon
[36] = system: HT29 colon
[37] = system: 786-0 renal
[38] = system: LOX IMVI melanoma
[39] = system: COLO 205 colon
[40] = system: KM12 colon
[41] = system: MALME-3M melanoma
[42] = system: EKVX NSCLC
[43] = system: KM20L2 colon
[44] = system: SF-539 CNS
[45] = system: U251 CNS
[46] = system: OVCAR-5 ovarian
[47] = system: UACC-62 melanoma
[48] = system: UACC-257 melanoma
[49] = system: SK-MEL-5 melanoma
[50] = system: OVCAR-8 ovarian
[51] = system: OVCAR-4 ovarian
[52] = system: NCI-H226 lung
[53] = system: DLD-1 colon
[54] = system: DMS 273 small cell lung
[55] = system: RPMI-8226 leukemia
[56] = system: A498 renal
[57] = system: SNB-75 CNS
[58] = system: XF 498 CNS
[59] = system: NCI-H522 lung

CC(C)(C)C1=NC(S)NC(CCC(=O)Nc2ccccc2[N+](=O)[O-])=C1 (stereo not given)
TGI [1]: > 100 µM
TGI [2]: > 100 µM
TGI [3]: > 100 µM
TGI [4]: > 100 µM
TGI [5]: > 100 µM
TGI [6]: > 100 µM
TGI [7]: > 100 µM
TGI [8]: > 100 µM
TGI [9]: > 100 µM
TGI [10]: > 100 µM
TGI [11]: > 100 µM
TGI [12]: > 100 µM
TGI [13]: > 100 µM
TGI [14]: > 100 µM
TGI [15]: > 100 µM
TGI [16]: > 100 µM
TGI [17]: > 100 µM
TGI [18]: > 100 µM
TGI [19]: > 100 µM
TGI [20]: > 100 µM
TGI [21]: > 100 µM
TGI [22]: > 100 µM
TGI [23]: > 100 µM
TGI [24]: > 100 µM
TGI [25]: > 100 µM
TGI [26]: > 100 µM
TGI [27]: > 100 µM
TGI [28]: > 100 µM
TGI [29]: > 100 µM
TGI [30]: > 100 µM
TGI [31]: > 100 µM
TGI [32]: > 100 µM
TGI [33]: > 100 µM
TGI [34]: > 100 µM
TGI [35]: > 100 µM
TGI [36]: > 100 µM
TGI [37]: > 100 µM
TGI [38]: > 100 µM
TGI [39]: > 100 µM
TGI [40]: > 100 µM
TGI [41]: > 100 µM
TGI [42]: > 100 µM
TGI [43]: > 100 µM
TGI [44]: > 100 µM
TGI [45]: > 100 µM
TGI [46]: > 100 µM
TGI [47]: > 100 µM
TGI [48]: > 100 µM
TGI [49]: > 100 µM
TGI [50]: > 100 µM
TGI [51]: > 100 µM
TGI [52]: > 100 µM
TGI [53]: > 100 µM

O=C(N/N=C/c1cccc(O)c1O)N/N=C/c1cccc(O)c1O
TGI [1]: > 100 µM
TGI [2]: > 100 µM
TGI [3]: 67.1 µM
TGI [4]: 36.8 µM
TGI [5]: 77.9 µM
TGI [6]: 86.4 µM
TGI [7]: 46.2 µM
TGI [8]: > 100 µM
TGI [10]: > 100 µM
TGI [11]: > 100 µM
TGI [12]: > 100 µM
TGI [54]: 65.2 µM
TGI [13]: > 100 µM
TGI [14]: > 100 µM
TGI [15]: > 100 µM
TGI [16]: > 100 µM
TGI [17]: > 100 µM
TGI [18]: > 100 µM
TGI [19]: 46.8 µM
TGI [55]: 76.8 µM
TGI [20]: 8.8 µM
TGI [56]: > 100 µM
TGI [21]: 38.5 µM
TGI [24]: > 100 µM
TGI [26]: > 100 µM
TGI [27]: > 100 µM
TGI [57]: 50.4 µM
TGI [28]: 34 µM
TGI [29]: > 100 µM
TGI [31]: > 100 µM
TGI [32]: > 100 µM
TGI [33]: 39.8 µM
TGI [34]: > 100 µM
TGI [58]: > 100 µM
TGI [36]: > 100 µM
TGI [37]: > 100 µM
TGI [38]: > 100 µM
TGI [39]: > 100 µM
TGI [40]: > 100 µM
TGI [41]: 74.4 µM
TGI [42]: > 100 µM
TGI [43]: 95.2 µM
TGI [44]: 36.2 µM
TGI [45]: > 100 µM
TGI [46]: 59 µM
TGI [47]: > 100 µM
TGI [48]: 62.9 µM
TGI [50]: > 100 µM
TGI [51]: > 100 µM
TGI [52]: 59.5 µM

O=C(O/N=C1/CCC/C1=C\c1ccccc1)c1ccc([N+](=O)[O-])cc1
TGI [1]: > 100 µM
TGI [2]: > 100 µM
TGI [3]: > 100 µM
TGI [4]: 74.9 µM
TGI [5]: > 100 µM
TGI [6]: > 100 µM
TGI [7]: > 100 µM
TGI [8]: > 100 µM
TGI [9]: > 100 µM
TGI [10]: > 100 µM
TGI [11]: > 100 µM
TGI [12]: > 100 µM
TGI [54]: > 100 µM
TGI [13]: > 100 µM
TGI [14]: > 100 µM
TGI [15]: > 100 µM
TGI [16]: > 100 µM
TGI [17]: > 100 µM
TGI [59]: > 100 µM
TGI [19]: > 100 µM
TGI [55]: > 100 µM
TGI [20]: > 100 µM
TGI [56]: > 100 µM
TGI [21]: > 100 µM
TGI [22]: > 100 µM
TGI [23]: > 100 µM
TGI [24]: > 100 µM
TGI [25]: > 100 µM
TGI [26]: > 100 µM
TGI [27]: > 100 µM
TGI [57]: 91.3 µM
TGI [28]: > 100 µM
TGI [29]: > 100 µM
TGI [30]: > 100 µM
TGI [31]: > 100 µM
TGI [32]: > 100 µM
TGI [33]: > 100 µM
TGI [34]: > 100 µM
TGI [35]: 25.7 µM
TGI [36]: > 100 µM
TGI [37]: > 100 µM
TGI [38]: > 100 µM
TGI [39]: > 100 µM
TGI [40]: > 100 µM
TGI [41]: > 100 µM
TGI [42]: > 100 µM
TGI [43]: > 100 µM
TGI [44]: > 100 µM
TGI [45]: > 100 µM
TGI [46]: > 100 µM
TGI [47]: > 100 µM
TGI [48]: > 100 µM
TGI [49]: > 100 µM
TGI [50]: > 100 µM
TGI [51]: > 100 µM
TGI [52]: > 100 µM
TGI [53]: > 100 µM
